Reference: patent publication US20100035866A1, “NOVEL SUBSTITUTED-1, 1-DIOXO-BENZO[1,2,4]THIADIAZIN-3ONES, PREPARATION METHOD THEREOF, AND PHARMACEUTICAL COMPOSITION CONTAINING THE SAME” (KOREA RESEARCH INSTITUTE OF CHEMICAL TECHNOLOGY, priority 2006, published 2010)

Legend:
[1] = molecular target: Human serotonin 5-HT6 receptor (Homo sapiens, UniProt P50406); experiment: [3H]LSD binding assay on cloned 5-HT6 receptor; conditions: IC50 (nM), binding affinity to the 5-HT6 receptor, Table 2; 1.87 nM [3H]LSD, cloned human receptor membranes from Sf21 cells, 37° C. 60 min
Sequence of Human serotonin 5-HT6 receptor (P50406 whole entry): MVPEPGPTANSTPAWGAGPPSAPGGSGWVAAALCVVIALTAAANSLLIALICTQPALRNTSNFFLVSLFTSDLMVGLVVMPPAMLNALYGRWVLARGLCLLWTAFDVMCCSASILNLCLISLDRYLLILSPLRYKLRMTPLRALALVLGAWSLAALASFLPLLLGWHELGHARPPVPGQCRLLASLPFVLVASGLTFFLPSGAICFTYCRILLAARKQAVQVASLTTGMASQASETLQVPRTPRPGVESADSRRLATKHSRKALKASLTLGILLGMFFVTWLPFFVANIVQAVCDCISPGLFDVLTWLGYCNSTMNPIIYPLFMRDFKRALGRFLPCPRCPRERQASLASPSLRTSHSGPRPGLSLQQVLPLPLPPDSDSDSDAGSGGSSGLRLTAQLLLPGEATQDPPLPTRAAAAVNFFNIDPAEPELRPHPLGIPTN

For CN1CCN(c2cc(Cl)cc3c2S(=O)(=O)N(CCc2ccccc2)C(=O)N3Cc2ccccc2)CC1 [Example 37, 4-Benzyl-6-chloro-8-(4-methyl-piperazin-1-yl)-1,1-dioxo-2-phenethyl-1,4-dihydro-2H-1λ^6-benzo[1,2,4]thiadiazin-3-one], the melting point was 151 to 152 °C and the IC50 [1] was 6.9 nM.

Compound CN1CCN(c2cc(Cl)cc3c2S(=O)(=O)N(Cc2ccncc2)C(=O)N3Cc2ccccc2)CC1 [Example 42, 4-Benzyl-6-chloro-8-(4-methyl-piperazin-1-yl)-1,1-dioxo-2-pyridin-4-ylmethyl-1,4-dihydro-2H-1λ^6-benzo[1,2,4]thiadiazin-3-one] has a melting point of 107 to 108 °C and an IC50 [1] of 7.7 nM.

With Cc1ccc(CN2C(=O)N(Cc3ccccc3)c3cc(Cl)cc(N4CCN(C)CC4)c3S2(=O)=O)o1 [Example 43, 4-Benzyl-6-chloro-2-(5-methyl-furan-2-ylmethyl)-8-(4-methyl-piperazin-1-yl)-1,1-dioxo-1,4-dihydro-2H-1λ^6-benzo[1,2,4]thiadiazin-3-one] the melting point was 130 to 131 °C and the IC50 [1] was 75.9 nM.

O=C1N(Cc2ccccc2)c2cc(Cl)cc(N3CCNCC3)c2S(=O)(=O)N1Cc1ccccc1F [Example 45, 4-Benzyl-6-chloro-2-(2-fluoro-benzyl)-1,1-dioxo-8-piperazin-1-yl-1,4-dihydro-2H-1λ^6-benzo[1,2,4]thiadiazin-3-one] gave a melting point of 120 to 121 °C and an IC50 [1] of 18.7 nM.

With O=C1N(Cc2ccccc2)c2cc(Cl)cc(N3CCNCC3)c2S(=O)(=O)N1Cc1ccccc1Cl [Example 47, 4-Benzyl-6-chloro-2-(2-chloro-benzyl)-1,1-dioxo-8-piperazin-1-yl-1,4-dihydro-2H-1λ^6-benzo[1,2,4]thiadiazin-3-one] the melting point was 126 to 127 °C and the IC50 [1] was 15.9 nM.

O=C1N(Cc2ccccc2)c2cc(Cl)cc(N3CCNCC3)c2S(=O)(=O)N1Cc1ccccc1Br [Example 48, 4-Benzyl-2-(2-bromo-benzyl)-6-chloro-1,1-dioxo-8-piperazin-1-yl-1,4-dihydro-2H-1λ^6-benzo[1,2,4]thiadiazin-3-one] gave a melting point of 144 to 145 °C and an IC50 [1] of 46 nM.

O=C1N(Cc2ccccc2)c2cc(Cl)cc(N3CCNCC3)c2S(=O)(=O)N1Cc1ccc(I)cc1 [Example 49, 4-Benzyl-6-chloro-2-(4-iodo-benzyl)-1,1-dioxo-8-piperazin-1-yl-1,4-dihydro-2H-1λ^6-benzo[1,2,4]thiadiazin-3-one] gave a melting point of 153 to 154 °C and an IC50 [1] of 17.1 nM.

For Cc1ccccc1CN1C(=O)N(Cc2ccccc2)c2cc(Cl)cc(N3CCNCC3)c2S1(=O)=O [Example 50, 4-Benzyl-6-chloro-2-(2-methyl-benzyl)-1,1-dioxo-8-piperazin-1-yl-1,4-dihydro-2H-1λ^6-benzo[1,2,4]thiadiazin-3-one], the melting point was 70 to 72 °C and the IC50 [1] was 22.2 nM.

In the case of COc1ccccc1CN1C(=O)N(Cc2ccccc2)c2cc(Cl)cc(N3CCNCC3)c2S1(=O)=O [Example 51, 4-Benzyl-6-chloro-2-(2-methoxy-benzyl)-1,1-dioxo-8-piperazin-1-yl-1,4-dihydro-2H-1λ^6-benzo[1,2,4]thiadiazin-3-one], the melting point is reported as 129 to 130 °C and the IC50 [1] is reported as 48.9 nM.

Compound O=C1N(Cc2ccccc2)c2cc(Cl)cc(N3CCNCC3)c2S(=O)(=O)N1Cc1ccccc1[N+](=O)[O-] [Example 55, 4-Benzyl-6-chloro-2-(2-nitro-benzyl)-1,1-dioxo-8-piperazin-1-yl-1,4-dihydro-2H-1λ^6-benzo[1,2,4]thiadiazin-3-one] has a melting point of 134 to 135 °C and an IC50 [1] of 33 nM.

COC(=O)c1ccc(CN2C(=O)N(Cc3ccccc3)c3cc(Cl)cc(N4CCNCC4)c3S2(=O)=O)cc1 [Example 56, 4-(4-Benzyl-6-chloro-1,1,3-trioxo-8-piperazin-1-yl-3,4-dihydro-1H-1λ^6-benzo[1,2,4]thiadiazin-2-ylmethyl)-benzoic acid methyl ester] showed a melting point of 136 to 139 °C and an IC50 [1] of 8.4 nM.

For N#Cc1ccc(CN2C(=O)N(Cc3ccccc3)c3cc(Cl)cc(N4CCNCC4)c3S2(=O)=O)cc1 [Example 57, 4-(4-Benzyl-6-chloro-1,1,3-trioxo-8-piperazin-1-yl-3,4-dihydro-1H-1λ^6-benzo[1,2,4]thiadiazin-2-ylmethyl)-benzonitrile], the melting point was 135 to 137 °C and the IC50 [1] was 18 nM.

For O=C1N(Cc2ccccc2)c2cc(Cl)cc(N3CCNCC3)c2S(=O)(=O)N1c1ccccc1 [Example 60, 4-Benzyl-6-chloro-1,1-dioxo-2-phenyl-8-piperazin-1-yl-1,4-dihydro-2H-1λ^6-benzo[1,2,4]thiadiazin-3-one], the melting point was 275 to 277 °C and the IC50 [1] was 15.5 nM.

Work on COc1ccccc1N1C(=O)N(Cc2ccccc2)c2cc(Cl)cc(N3CCNCC3)c2S1(=O)=O [Example 61, 4-Benzyl-6-chloro-2-(2-methoxy-phenyl)-1,1-dioxo-8-piperazin-1-yl-1,4-dihydro-2H-1λ^6-benzo[1,2,4]thiadiazin-3-one] yielded a melting point of 175 to 176 °C and an IC50 [1] of 50.7 nM.

Compound COc1ccc(N2C(=O)N(Cc3ccccc3)c3cc(Cl)cc(N4CCNCC4)c3S2(=O)=O)cc1 [Example 63, 4-Benzyl-6-chloro-2-(4-methoxy-phenyl)-1,1-dioxo-8-piperazin-1-yl-1,4-dihydro-2H-1λ^6-benzo[1,2,4]thiadiazin-3-one] has a melting point of 155 to 156 °C and an IC50 [1] of 28 nM.

Work on CCN1C(=O)N(Cc2ccccc2)c2cc(Cl)cc(N3CCNCC3)c2S1(=O)=O [Example 64, 4-Benzyl-6-chloro-2-ethyl-1,1-dioxo-8-piperazin-1-yl-1,4-dihydro-2H-1λ^6-benzo[1,2,4]thiadiazin-3-one] yielded a melting point of 158 to 161 °C and an IC50 [1] of 4.6 nM.

With O=C1N(Cc2ccccc2)c2cc(Cl)cc(N3CCNCC3)c2S(=O)(=O)N1Cc1cccc2ccccc12 [Example 68, 4-Benzyl-6-chloro-2-naphthalen-1-ylmethyl-1,1-dioxo-8-piperazin-1-yl-1,4-dihydro-2H-1λ^6-benzo[1,2,4]thiadiazin-3-one] the melting point was 164 to 166 °C and the IC50 [1] was 6.9 nM.

With O=C1N(Cc2ccccc2)c2cc(Cl)cc(N3CCOCC3)c2S(=O)(=O)N1Cc1ccccc1Cl [Example 69, 4-Benzyl-6-chloro-2-(2-chloro-benzyl)-8-morpholin-4-yl-1,1-dioxo-1,4-dihydro-2H-1λ^6-benzo[1,2,4]thiadiazin-3-one] the melting point was 171 to 172 °C and the IC50 [1] was greater than 1000 nM.

O=C1N(Cc2ccccc2)c2cc(Cl)cc(N3CCN(c4ccccn4)CC3)c2S(=O)(=O)N1Cc1ccccc1Cl [Example 70, 4-Benzyl-6-chloro-2-(2-chloro-benzyl)-1,1-dioxo-8-(4-pyridin-2-yl-piperazin-1-yl)-1,4-dihydro-2H-1λ^6-benzo[1,2,4]thiadiazin-3-one] gave a melting point of 159 to 161 °C and an IC50 [1] greater than 1000 nM.

In the case of C[C@@H]1CN(c2cc(Cl)cc3c2S(=O)(=O)N(Cc2ccccc2Cl)C(=O)N3Cc2ccccc2)CCN1 [Example 71, 4-Benzyl-6-chloro-2-(2-chloro-benzyl)-8-[(R)-3-methyl-piperazin-1-yl]-1,1-dioxo-1,4-dihydro-2H-1λ^6-benzo[1,2,4]thiadiazin-3-one], the melting point is reported as 134 to 136 °C and the IC50 [1] is reported as 147 nM.

C[C@H]1CN(c2cc(Cl)cc3c2S(=O)(=O)N(Cc2ccccc2Cl)C(=O)N3Cc2ccccc2)CCN1 [Example 72, 4-Benzyl-6-chloro-2-(2-chloro-benzyl)-8-[(S)-3-methyl-piperazin-1-yl]-1,1-dioxo-1,4-dihydro-2H-1λ^6-benzo[1,2,4]thiadiazin-3-one] gave a melting point of 142 to 143 °C and an IC50 [1] of 6.8 nM.

For O=C1N(Cc2ccccc2)c2cc(Cl)cc(N3CCN4CCC[C@H]4C3)c2S(=O)(=O)N1Cc1ccccc1Cl [Example 73, 4-Benzyl-6-chloro-2-(2-chloro-benzyl)-8-[(6S)-1,4-diazabicyclo[4.3.0]non-4-yl]-1,1-dioxo-1,4-dihydro-2H-1λ^6-benzo[1,2,4]thiadiazin-3-one], the melting point was 143 to 144 °C and the IC50 [1] was 16 nM.

For O=C1N(Cc2ccccc2)c2cc(Cl)cc(N3CCN4CCCC[C@@H]4C3)c2S(=O)(=O)N1Cc1ccccc1Cl [Example 75, 4-Benzyl-6-chloro-2-(2-chloro-benzyl)-8-[(6R)-1,4-diazabicyclo[4.4.0]dec-4-yl]-1,1-dioxo-1,4-dihydro-2H-1λ^6-benzo[1,2,4]thiadiazin-3-one], the melting point was 157 to 159 °C and the IC50 [1] was 396 nM.
